Publication doi:10.1101/2021.10.07.463234v2 (biorxiv, 2021)
Structures can show the parent of a compound that is named as a salt. Numbered stars: 1 amine (or outer) side, 2 acyl side, 3 side chain; on linkers, the order of the positions; unused ones are H or OH. Bridge positions count the residues as written; N and C are the ends. Square brackets hold non-standard residues; d marks the D form. Peptide text beside a SMILES is read from it. * marks the point of attachment. pTerphenylCO(4''-OnC5H11) = CCCCCOc1ccc(-c2ccc(-c3ccc(C(=O)*)cc3)cc2)cc1; Orn(4R-OH,5R-OH) = O=C([C@H](C[C@@H](O)[C@@H](O)N[*:3])N[*:1])[*:2]; hTyr(3S-OH,4S-OH) = N[C@H](C(=O)O)[C@H](O)[C@@H](O)c1ccc(O)cc1; Ileψ(thiazoline)Cys = CC[C@H](C)[C@H](N)C1=N[C@H](C(=O)*)CS1; Pro(3S-OH,4S-Me) = C[C@H]1CN[C@H](C(=O)O)[C@H]1O; Hyp = O=C(O)[C@@H]1C[C@@H](O)CN1; dOrn = NCCC[C@@H](N)C(=O)O

Target: SARS-CoV-2 Mac1 (Severe acute respiratory syndrome coronavirus 2, UniProt P0DTD1)
Experiment: biochemical
Settings: for inhibition at 100 µM: read-out: %inhibition; for %inhibition: 100 µM, inhibitor

| SMILES | inhibition at 100 µM [%] | %inhibition [%] |
| --- | --- | --- |
| CCCCCOc1ccc(-c2ccc(-c3ccc(C(=O)N[C@H]4C[C@@H](O)[C@@H](O)NC(=O)[C@@H]5[C@@H](O)[C@@H](C)CN5C(=O)[C@H]([C@@H](C)O)NC(=O)[C@H]([C@H](O)[C@@H](O)c5ccc(O)cc5)NC(=O)[C@@H]5C[C@@H](O)CN5C(=O)[C@H]([C@@H](C)O)NC4=O)cc3)cc2)cc1 [Anidulafungin (LY303366)] ({pTerphenylCO(4''-OnC5H11)}-[Orn(4R-OH,5R-OH)]T[Hyp][hTyr(3S-OH,4S-OH)]T[Pro(3S-OH,4S-Me)]; lactam 1-C) | 6.34 | – |
| COc1ccc(C(=O)N2CCCC2=O)cc1 [Aniracetam] | 0 | – |
| COc1ccc(C2C(=O)c3ccccc3C2=O)cc1 [Anisindione] | 2.26 | – |
| CCCC(CCC)C(=O)O[C@H]1C[C@H]2CC[C@@H](C1)[N+]2(C)C [Anisotropine Methylbromide] | 5.8 | – |
| Cc1cc(=O)n(-c2ccccc2)n1C [Antipyrine] | 8.75 | – |
| N#CC1(c2ccc(NC(=O)c3cccnc3NCc3ccncc3)cc2)CCCC1 [Apatinib?mesylate] | 0 | – |
| COc1ccc(-n2nc(C(N)=O)c3c2C(=O)N(c2ccc(N4CCCCC4=O)cc2)CC3)cc1 [Apixaban] | 0 | – |
| CCOc1cc([C@@H](CS(C)(=O)=O)N2C(=O)c3cccc(NC(C)=O)c3C2=O)ccc1OC [Apremilast (CC-10004)] | 0 | – |
| C[C@@H](O[C@H]1OCCN(Cc2n[nH]c(=O)[nH]2)[C@H]1c1ccc(F)cc1)c1cc(C(F)(F)F)cc(C(F)(F)F)c1 [Aprepitant] | 10.1 | – |
| COC(=O)C1=CCCN(C)C1 [Arecoline HBr] | 3.01 | – |
| COc1ccc(C[C@@H](C)NC[C@H](O)c2ccc(O)c(NC=O)c2)cc1 [Arformoterol Tartrate] | – | 8.751 |
| CC1CNc2c(cccc2S(=O)(=O)N[C@@H](CCCNC(=N)N)C(=O)N2CC[C@@H](C)C[C@@H]2C(=O)O)C1 (stereo partly drawn) [Argatroban Monohydrate] | – | 0 |
| CC1CNc2c(cccc2S(=O)(=O)N[C@@H](CCCNC(=N)N)C(=O)N2CC[C@@H](C)C[C@@H]2C(=O)O)C1 (stereo partly drawn) [Argatroban] | – | 4.667 |
| CO[C@H]1O[C@@H]2O[C@@]3(C)CC[C@H]4[C@H](C)CC[C@@H]([C@H]1C)[C@@]24OO3 [Artemether] | 0 | – |
| C[C@@H]1CC[C@H]2[C@@H](C)C(=O)O[C@@H]3O[C@@]4(C)CC[C@@H]1[C@]32OO4 [Artemisinin] | 10.9 | – |
| C[C@H]1[C@H](OC(=O)CCC(=O)O)O[C@@H]2O[C@@]3(C)CC[C@H]4[C@H](C)CC[C@@H]1[C@@]24OO3 [Artesunate] | 0 | – |
| CCCNC(C)C(=O)Nc1c(C)csc1C(=O)OC (stereo not drawn) [Articaine HCl] | 0 | – |
| COC(=O)[C@H](Cc1ccccc1)NC(=O)[C@@H](N)CC(=O)O [Aspartame] (H-Asp-Phe-OMe) | 0 | – |
| CC(=O)Oc1ccccc1C(=O)O [Aspirin] | – | 26.28 |
| C=C[C@@H]1C[C@]1(NC(=O)[C@@H]1C[C@@H](Oc2ncc(OC)c3ccc(Cl)cc23)CN1C(=O)[C@@H](NC(=O)OC(C)(C)C)C(C)(C)C)C(=O)NS(=O)(=O)C1CC1 [Asunaprevir] | 0 | – |
| COC(=O)N[C@H](C(=O)N[C@@H](Cc1ccccc1)[C@@H](O)CN(Cc1ccc(-c2ccccn2)cc1)NC(=O)[C@@H](NC(=O)OC)C(C)(C)C)C(C)(C)C [Atazanavir Sulfate] | 0 | – |

| SMILES | inhibition at 100 µM [%] | %inhibition [%] |
| --- | --- | --- |
| CC(C)NCC(O)COc1ccc(CC(N)=O)cc1 (stereo not drawn) [Atenolol] | 0 | – |
| CCC1(c2c[nH]cn2)Cc2ccccc2C1 [Atipamezole hydrochloride] | 0 | – |
| CNCC[C@@H](Oc1ccccc1C)c1ccccc1 [Atomoxetine HCl] | 0 | – |
| CC(C)c1c(C(=O)Nc2ccccc2)c(-c2ccccc2)c(-c2ccc(F)cc2)n1CC[C@@H](O)C[C@@H](O)CC(=O)O [Atorvastatin Calcium] | 0 | – |
| O=C1C(O)=C([C@H]2CC[C@H](c3ccc(Cl)cc3)CC2)C(=O)c2ccccc21 [Atovaquone] | 23.4 | – |
| COc1ccc(C[C@@H]2c3cc(OC)c(OC)cc3CC[N@+]2(C)CCC(=O)OCCCCCOC(=O)CC[N@@+]2(C)CCc3cc(OC)c(OC)cc3[C@H]2Cc2ccc(OC)c(OC)c2)cc1OC [Atracurium Besylate] | – | 4.976 |
| NC(=O)[C@@H](CCC(F)(F)F)N(Cc1ccc(-c2ncon2)cc1F)S(=O)(=O)c1ccc(Cl)cc1 [Avagacestat (BMS-708163)] | 0 | – |
| COc1ccc(CNc2nc(N3CCC[C@H]3CO)ncc2C(=O)NCc2ncccn2)cc1Cl [Avanafil] | 0 | – |
| NC(=O)[C@@H]1CC[C@@H]2CN1C(=O)N2OS(=O)(=O)O [Avibactam sodium] | 0 | – |
| COc1ccc(C(=O)CC(=O)c2ccc(C(C)(C)C)cc2)cc1 [Avobenzone] | 26.5 | – |
| CNC(=O)c1ccccc1Sc1ccc2c(/C=C/c3ccccn3)n[nH]c2c1 [Axitinib] | 59.3 | – |
| Nc1ncn([C@@H]2O[C@H](CO)[C@@H](O)[C@H]2O)c(=O)n1 [Azacitidine] | 32.2 | – |
| OC(c1ccccc1)(c1ccccc1)C1CCNCC1 [Azacyclonol] | 0 | – |
| O=C(CCCN1CCN(c2ccccn2)CC1)c1ccc(F)cc1 [Azaperone] | 22.5 | – |
| CN1C(=O)COc2c(C(=O)NC3CN4CCC3CC4)cc(Cl)cc21 (stereo not drawn) [Azasetron HCl] | 0 | – |
| CN1CCC(=C2c3ccccc3CCc3cccnc32)CC1 [Azatadine dimaleate] | 0 | – |
| Cn1cnc([N+](=O)[O-])c1Sc1ncnc2[nH]cnc12 [Azathioprine] | 18.9 | – |
| O=C(O)CCCCCCCC(=O)O [Azelaic acid] | 0 | – |
| CN1CCCC(n2nc(Cc3ccc(Cl)cc3)c3ccccc3c2=O)CC1 (stereo not drawn) [Azelastine HCl] | 20.2 | – |
| CC1=C(C(=O)OC(C)C)C(c2cccc([N+](=O)[O-])c2)C(C(=O)OC2CN(C(c3ccccc3)c3ccccc3)C2)=C(N)N1 (stereo not drawn) [Azelnidipine] | 12.9 | – |
| CCOc1nc2cccc(C(=O)OCc3oc(=O)oc3C)c2n1Cc1ccc(-c2ccccc2-c2noc(=O)[nH]2)cc1 [Azilsartan Medoxomil] | 9.53 | – |

| SMILES | inhibition at 100 µM [%] | %inhibition [%] |
| --- | --- | --- |
| CCOc1nc2cccc(C(=O)O)c2n1Cc1ccc(-c2ccccc2-c2noc(=O)[nH]2)cc1 [Azilsartan] | 16.1 | – |
| CC[C@H]1OC(=O)[C@H](C)[C@@H](O[C@H]2C[C@@](C)(OC)[C@@H](O)[C@H](C)O2)[C@H](C)[C@@H](O[C@@H]2O[C@H](C)C[C@H](N(C)C)[C@H]2O)[C@](C)(O)C[C@@H](C)CN(C)[C@H](C)[C@@H](O)[C@]1(C)O [Azithromycin Dihydrate] | – | 2.079 |
| CC[C@H]1OC(=O)[C@H](C)[C@@H](O[C@H]2C[C@@](C)(OC)[C@@H](O)[C@H](C)O2)[C@H](C)[C@@H](O[C@@H]2O[C@H](C)C[C@H](N(C)C)[C@H]2O)[C@](C)(O)C[C@@H](C)CN(C)[C@H](C)[C@@H](O)[C@]1(C)O [Azithromycin] | – | 5.483 |
| CC1(C)S[C@@H]2[C@H](NC(=O)[C@H](NC(=O)N3CCNC3=O)c3ccccc3)C(=O)N2[C@H]1C(=O)O [Azlocillin sodium salt] | 0 | – |
| C[C@H]1[C@H](NC(=O)/C(=N\OC(C)(C)C(=O)O)c2csc(N)n2)C(=O)N1S(=O)(=O)O [Aztreonam] | 11.7 | – |
| CCc1cc(/C(C)=N/OCc2ccc(C3CCCCC3)c(C(F)(F)F)c2)ccc1CN1CC(C(=O)O)C1 [BAF312 (Siponimod)] | 26.1 | – |
| CC[C@H](C)[C@H](N)C1=N[C@H](C(=O)N[C@@H](CC(C)C)C(=O)N[C@H](CCC(=O)O)C(=O)N[C@H](C(=O)N[C@H]2CCCCNC(=O)[C@H](CC(N)=O)NC(=O)[C@@H](CC(=O)O)NC(=O)[C@H](Cc3cnc[nH]3)NC(=O)[C@@H](Cc3ccccc3)NC(=O)[C@H]([C@@H](C)CC)NC(=O)[C@@H](CCCN)NC2=O)[C@@H](C)CC)CS1 [Bacitracin] ({Ileψ(thiazoline)Cys}-L[dE]IK[dOrn]I[dF]H[dD]N; lactam 4-C) | 0 | – |
| Cc1ccc(NC(=O)c2ccc(CN3CC[C@H](N(C)C)C3)c(C(F)(F)F)c2)cc1Nc1nccc(-c2cncnc2)n1 [Bafetinib (INNO-406)] | 0 | – |
| CNC1CCCN(c2c(F)cc3c(=O)c(C(=O)O)cn(C4CC4)c3c2OC)C1 (stereo not drawn) [Balofloxacin] | 0 | – |
| O=C(O)CCNC(=O)c1ccc(/N=N/c2ccc(O)c(C(=O)O)c2)cc1 [Balsalazide disodium] | 0 | – |
| COC(=O)[C@]12CCC(C)(C)C[C@H]1[C@H]1C(=O)C=C3[C@@]4(C)C=C(C#N)C(=O)C(C)(C)[C@@H]4CC[C@@]3(C)[C@]1(C)CC2 [Bardoxolone Methyl] | 16.4 | – |
| CCS(=O)(=O)N1CC(CC#N)(n2cc(-c3ncnc4[nH]ccc34)cn2)C1 [Baricitinib (LY3009104, INCB028050)] | 28.1 | – |
| CNC(=O)[C@H](Cc1ccccc1)NC(=O)[C@H](CC(C)C)[C@H](CSc1cccs1)C(=O)NO [Batimastat (BB-94)] | 0 | – |
| Cc1c(-c2ccc(O)cc2)n(Cc2ccc(OCCN3CCCCCC3)cc2)c2ccc(O)cc12 [Bazedoxifene Acetate] | – | 3.518 |
| Cc1c(-c2ccc(O)cc2)n(Cc2ccc(OCCN3CCCCCC3)cc2)c2ccc(O)cc12 [Bazedoxifene HCl] | – | 0 |
| CCC(=O)OCC(=O)[C@@]1(OC(=O)CC)[C@@H](C)C[C@H]2[C@@H]3CCC4=CC(=O)C=C[C@]4(C)[C@@]3(Cl)[C@@H](O)C[C@@]21C [Beclomethasone dipropionate] | 0 | – |
| COc1nc2ccc(Br)cc2cc1[C@@H](c1ccccc1)[C@@](O)(CCN(C)C)c1cccc2ccccc12 [Bedaquiline fumarate] | – | 0 |
| COc1nc2ccc(Br)cc2cc1[C@@H](c1ccccc1)[C@@](O)(CCN(C)C)c1cccc2ccccc12 [Bedaquiline] | – | 4.292 |
| O=C(/C=C/c1cccc(S(=O)(=O)Nc2ccccc2)c1)NO [Belinostat (PXD101)] | 20 | – |
| CCC1(C)CC(=O)NC(=O)C1 [Bemegride] | 0 | – |
| CCN(CC)CCOC(=O)C(O)(c1ccccc1)c1ccccc1 [Benactyzine hydrochloride] | 0 | – |
